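The compound was tested at five concentrations on cells cultured in 96-well plates, with a 48-hour exposure period. GI50 = concentration required for 50% inhibition of growth.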 Activity calls are given as the source filed them. Rule as the data show it: active = GI50 up to about 1.1 µM and inactive = higher.
Experiments:
Test in all cases: NCI tumour cell line growth inhibition, 48 h
IGROV-1 = tested on: IGROV-1
CCRF-CEM = tested on: CCRF-CEM
ACHN = tested on: ACHN
A549 = tested on: A549
SNB-75 = tested on: SNB-75
UO-31 = tested on: UO-31
OVCAR-5 = tested on: OVCAR-5
CAKI-1 = tested on: CAKI-1
SW-620 = tested on: SW-620
SF-268 = tested on: SF-268
OVCAR-8 = tested on: OVCAR-8
Malme-3M = tested on: Malme-3M
SF-539 = tested on: SF-539
SK-MEL-2 = tested on: SK-MEL-2
COLO 205 = tested on: COLO 205
TK-10 = tested on: TK-10
SK-MEL-28 = tested on: SK-MEL-28
NCI-H226 = tested on: NCI-H226

SMILES | GI50 (IGROV-1) | GI50 (CCRF-CEM) | GI50 (ACHN) | GI50 (A549) | GI50 (SNB-75) | GI50 (UO-31) | GI50 (OVCAR-5) | GI50 (CAKI-1) | GI50 (SW-620) | GI50 (SF-268) | GI50 (OVCAR-8) | GI50 (Malme-3M) | GI50 (SF-539) | GI50 (SK-MEL-2) | GI50 (COLO 205) | GI50 (TK-10) | GI50 (SK-MEL-28) | GI50 (NCI-H226)
CCn1cc(/C=C/C(C)c2cn(CC)c(=O)[nH]c2=O)c(=O)[nH]c1=O (stereo not given) | > 100 µM (inactive) | > 100 µM (inactive) | > 100 µM (inactive) | > 100 µM (inactive) | 84.7 µM (inactive) | > 100 µM (inactive) | > 100 µM (inactive) | > 100 µM (inactive) | > 100 µM (inactive) | > 100 µM (inactive) | > 100 µM (inactive) | > 100 µM (inactive) | > 100 µM (inactive) | > 100 µM (inactive) | > 100 µM (inactive) | > 100 µM (inactive) | > 100 µM (inactive) | –
O=C(NCCOCCO)c1ccc(O)cc1 | > 100 µM (inactive) | > 100 µM (inactive) | > 100 µM (inactive) | > 100 µM (inactive) | – | > 100 µM (inactive) | – | – | > 100 µM (inactive) | > 100 µM (inactive) | > 100 µM (inactive) | – | > 100 µM (inactive) | – | > 100 µM (inactive) | > 100 µM (inactive) | > 100 µM (inactive) | –
CC1(C)CCC(Sc2ccccc2)O1 (stereo not given) | > 100 µM (inactive) | > 100 µM (inactive) | > 100 µM (inactive) | > 100 µM (inactive) | 92 µM (inactive) | > 100 µM (inactive) | – | > 100 µM (inactive) | > 100 µM (inactive) | > 100 µM (inactive) | > 100 µM (inactive) | – | > 100 µM (inactive) | > 100 µM (inactive) | > 100 µM (inactive) | > 100 µM (inactive) | > 100 µM (inactive) | –
Cc1cc(C)nc(NS(=O)(=O)c2ccc(Nc3c4ccc(Cl)cc4nc4c(C(=O)Nc5ccc(S(N)(=O)=O)cc5)cccc34)cc2)n1 | – | 25.1 µM (inactive) | 32.1 µM (inactive) | – | 20.3 µM (inactive) | 18.6 µM (inactive) | 14.7 µM (inactive) | – | – | 39.2 µM (inactive) | 16.9 µM (inactive) | 33 µM (inactive) | 17.2 µM (inactive) | – | – | 36.3 µM (inactive) | 33.8 µM (inactive) | –
O=C1OC(/C=C/c2ccccc2)C(=O)C1=O (stereo not given) | > 100 µM (inactive) | > 100 µM (inactive) | > 100 µM (inactive) | > 100 µM (inactive) | > 100 µM (inactive) | > 100 µM (inactive) | > 100 µM (inactive) | – | > 100 µM (inactive) | > 100 µM (inactive) | – | > 100 µM (inactive) | > 100 µM (inactive) | > 100 µM (inactive) | > 100 µM (inactive) | > 100 µM (inactive) | > 100 µM (inactive) | > 100 µM (inactive)
CN(C)c1ccc(/C=c2\sc3nc4ccccc4n3c2=O)cc1 | > 100 µM (inactive) | – | > 100 µM (inactive) | > 100 µM (inactive) | 32.8 µM (inactive) | > 100 µM (inactive) | > 100 µM (inactive) | > 100 µM (inactive) | > 100 µM (inactive) | > 100 µM (inactive) | > 100 µM (inactive) | > 100 µM (inactive) | > 100 µM (inactive) | > 100 µM (inactive) | > 100 µM (inactive) | > 100 µM (inactive) | > 100 µM (inactive) | > 100 µM (inactive)
CCCCCCCCCCCCCCCCOC(=O)C(C(=O)OCCCCCCCCCCCCCCCC)[N+](C)(C)CCOC(C)=O | 3.92 µM (inactive) | 10.3 µM (inactive) | 19.2 µM (inactive) | 20.5 µM (inactive) | 12.9 µM (inactive) | 19.7 µM (inactive) | 20.8 µM (inactive) | 12.6 µM (inactive) | 20.6 µM (inactive) | 17.9 µM (inactive) | 17.7 µM (inactive) | 21.2 µM (inactive) | – | 20.1 µM (inactive) | 15.8 µM (inactive) | 13 µM (inactive) | 24 µM (inactive) | 18.7 µM (inactive)
c1ccc(/N=C2\c3ccccc3C3=NCCCN32)cc1 | 59.8 µM (inactive) | 61.1 µM (inactive) | 29.4 µM (inactive) | 42.3 µM (inactive) | 50.9 µM (inactive) | 29.2 µM (inactive) | > 100 µM (inactive) | 27.1 µM (inactive) | 43.9 µM (inactive) | 81.5 µM (inactive) | > 100 µM (inactive) | 62.8 µM (inactive) | 49.3 µM (inactive) | 86.5 µM (inactive) | 62.1 µM (inactive) | 50 µM (inactive) | > 100 µM (inactive) | 27.2 µM (inactive)
C=CCN(N=O)C(=O)ON1C(=O)CCC1=O | > 100 µM (inactive) | 85.9 µM (inactive) | > 100 µM (inactive) | > 100 µM (inactive) | 75.9 µM (inactive) | > 100 µM (inactive) | 0.0681 µM (active) | – | > 100 µM (inactive) | > 100 µM (inactive) | > 100 µM (inactive) | > 100 µM (inactive) | > 100 µM (inactive) | > 100 µM (inactive) | > 100 µM (inactive) | > 100 µM (inactive) | > 100 µM (inactive) | –
C/C=C1/C=CC2c3[nH]c4ccccc4c3CCN2C1 (stereo not given) | > 400 µM (inactive) | > 400 µM (inactive) | > 400 µM (inactive) | > 400 µM (inactive) | – | – | – | > 400 µM (inactive) | > 400 µM (inactive) | > 400 µM (inactive) | > 400 µM (inactive) | > 400 µM (inactive) | > 400 µM (inactive) | > 400 µM (inactive) | > 400 µM (inactive) | > 400 µM (inactive) | > 400 µM (inactive) | 358 µM (inactive)
Cn1nc(-c2ccccc2)c2c(/C=C/c3ccc(F)cc3)onc2c1=O | > 100 µM (inactive) | > 100 µM (inactive) | 24.1 µM (inactive) | 13.6 µM (inactive) | – | 29.2 µM (inactive) | – | 27.4 µM (inactive) | > 100 µM (inactive) | > 100 µM (inactive) | 38.1 µM (inactive) | – | 61.9 µM (inactive) | – | > 100 µM (inactive) | 90.6 µM (inactive) | > 100 µM (inactive) | –
COc1ccc(C2CCc3cc4c(cc3/C2=N/OC(C)=O)OCO4)cc1OC (stereo not given) | 24.3 µM (inactive) | 25.6 µM (inactive) | – | 18.3 µM (inactive) | 18.3 µM (inactive) | 17.2 µM (inactive) | 32.9 µM (inactive) | – | 27.4 µM (inactive) | 12.9 µM (inactive) | 34.4 µM (inactive) | 20.1 µM (inactive) | 17.9 µM (inactive) | 27.8 µM (inactive) | 22.5 µM (inactive) | 39 µM (inactive) | 18.4 µM (inactive) | 12.6 µM (inactive)
CCSC1(SCC)CC(Cc2ccc(OC)cc2)N(/C=N/C(C)(C)C)C1 (stereo not given) | 37.8 µM (inactive) | 15.2 µM (inactive) | 32.5 µM (inactive) | 36.9 µM (inactive) | 26.2 µM (inactive) | 17.3 µM (inactive) | 11.5 µM (inactive) | 21 µM (inactive) | 15.1 µM (inactive) | 61 µM (inactive) | 28.2 µM (inactive) | 20.1 µM (inactive) | 54.5 µM (inactive) | 33.1 µM (inactive) | 21 µM (inactive) | 17.3 µM (inactive) | 35.8 µM (inactive) | 27.6 µM (inactive)
Cn1c(=O)c(C(c2ccc([N+](=O)[O-])cc2)c2c(O)c3ccccc3n(C)c2=O)cc2ccccc21 (stereo not given) | 42.3 µM (inactive) | – | 57.8 µM (inactive) | 93.5 µM (inactive) | 23 µM (inactive) | 35.2 µM (inactive) | 28.4 µM (inactive) | 47.8 µM (inactive) | > 100 µM (inactive) | 53.1 µM (inactive) | > 100 µM (inactive) | 26.7 µM (inactive) | 43.6 µM (inactive) | 59.6 µM (inactive) | 32.7 µM (inactive) | 29.9 µM (inactive) | 48.1 µM (inactive) | 13.4 µM (inactive)
N#CC12CC3(CCC1CCC1(C2)OCCO1)OCCO3 (stereo not given) | > 100 µM (inactive) | > 100 µM (inactive) | > 100 µM (inactive) | > 100 µM (inactive) | > 100 µM (inactive) | > 100 µM (inactive) | > 100 µM (inactive) | > 100 µM (inactive) | > 100 µM (inactive) | > 100 µM (inactive) | > 100 µM (inactive) | > 100 µM (inactive) | > 100 µM (inactive) | > 100 µM (inactive) | > 100 µM (inactive) | > 100 µM (inactive) | > 100 µM (inactive) | > 100 µM (inactive)
COC(=O)[C@@H]1C(=O)O[C@@H](c2ccc3c(c2)OCO3)[C@@H]1C(=O)OC.COC(=O)[C@H]1C(=O)O[C@@H](c2ccc3c(c2)OCO3)[C@@H]1C(=O)OC | > 100 µM (inactive) | > 100 µM (inactive) | > 100 µM (inactive) | > 100 µM (inactive) | > 100 µM (inactive) | > 100 µM (inactive) | > 100 µM (inactive) | > 100 µM (inactive) | > 100 µM (inactive) | > 100 µM (inactive) | > 100 µM (inactive) | > 100 µM (inactive) | > 100 µM (inactive) | – | > 100 µM (inactive) | > 100 µM (inactive) | > 100 µM (inactive) | > 100 µM (inactive)
Nc1ccccc1N | > 100 µM (inactive) | 21.1 µM (inactive) | > 100 µM (inactive) | > 100 µM (inactive) | > 100 µM (inactive) | > 100 µM (inactive) | > 100 µM (inactive) | > 100 µM (inactive) | > 100 µM (inactive) | > 100 µM (inactive) | > 100 µM (inactive) | > 100 µM (inactive) | > 100 µM (inactive) | > 100 µM (inactive) | > 100 µM (inactive) | > 100 µM (inactive) | > 100 µM (inactive) | –
